Data published in patent US20240197700A1, “Methods and Compositions for Treating Lysosomal Storage Disorders” (Sanford Health, priority 2021, published 2024).

Assays:
[1] = tested on: Cln2^R207X mice; assay: Microglial activation (CD68) in brain of Cln2^R207X mice; assay type: in vivo, mouse
Description: Specific experimental details are included in figure legends. In general, after collection and preparation, MEFs and PNCs were dosed with vehicle or AF38469 (40 nM, 400 nM. or 4 μM) on DIV3 and DIV5. On DIV7, cells were treated with the following dyes: Hoechst 33342 (1:1000 dilution), LysoTrackerT™ Red DND-99 (1:10,000 dilution), fixed, and imaged. Mice were given vehicle or AF38469 (78.125 μg/ml, 3.125 μg/ml, 0.3125 μg/ml or 0.03125 μg/ml equating approximately to 250 μg/mouse/day, 10 μg/mouse/day, 1 μg/mouse/day, and […], respectively, given a mouse's daily water intake of approximately 3.2 ml per day) in drinking water beginning at wean. Body weight was measured bi-weekly, and a force actimeter test was performed on Cln2^R207X mice at 10 weeks of age. Body weight was measured every month for Cln3^Δex7/8 mice. At 11 and 16 weeks of age, respectively, Cln2^R207X and Cln3^Δex7/8 mice along with age matched wild type control mice were CO2 euthanized and intracardially perfused with PBS. Brains were collected and placed on a 1 mm sagittal brain block. Brains were sliced at the midline and 3 mm right of the midline. One hemisphere was fixed in 4% PFA and sectioned at 50 microns on a vibratome. Immunohistochemistry was performed on free-floating sections. For mitochondrial ATP synthase subunit C (SubC), glial fibrillary acidic protein (GFAP), and cluster of differentiation 68 (CD68) immunolabeling, primary antibodies included anti-SubC (Abcam, ab181243; 1:1000), anti-GFAP (Dako, Z0334; 1:5000), anti-CD68 (AbD Serotec, MCA1957; 1:2000), and secondary antibodies included anti-rabbit biotinylated (Vector Labs, BA-1000 1:1000) and anti-rat (Vector Labs, BA-9400 1:1000). Coverslips were mounted on slides using antifade-mounting media and were stored in the dark before imaging. Sections were imaged and analyzed using an Aperio Digital Pathology Slide Scanner (AT2) and associated software. Images were extracted from S1BF of the somatosensory cortex and the VPM/VPL of the thalamus, with multiple images taken of multiple tissues from each animal.
Short-term chronic treatment with AF38469 impacts glial activation in Cln2^R207X mice. Beginning at wean, wild type and Cln2^R207X mice were treated with vehicle (0.2408% DMSO) or AF38469 (0.03125 μg/ml, 0.3125 μg/ml, 3.125 μg/ml, 78.125 μg/ml) continuously through the drinking water continuing until sacrifice at 11 weeks. […] Sections were imaged and analyzed using an Aperio Digital Pathology Slide Scanner (AT2) and associated software. […] Percent area of immunoreactivity were quantified using a threshold analysis in ImageJ™. […]

[2] = tested on: TFEB; assay: TFEB nuclear translocation time course in transfected N2A cells; assay type: cell-based, mouse; settings: for TFEB nuclear translocation: N2A cells; for TFEB nuclear translocation (i.e., activation): overall statement, GFP-TFEB transfected N2A cells, acute treatment
Description: FIG. 15(A-B). Treatment with LM11A-31 stimulates TFEB nuclear translocation as monitored via time course study. For (A), wild type neuro 2A […] neuroblastoma (N2A) cells were plated and transfected with a pEGFP-N1-TFEB plasmid for a 24-hour incubation. Cells were dyed and imaged on the CellInsight™ CX7 High-Content Screening Platform (CX7) then treated with media containing vehicle or LM11A-31 (100 nM, 1 μM). Cells were imaged every 30 minutes for three hours on the CX7 with incubation between imaging sessions, and results were quantified. The statistics were analyzed using Graphpad Prism™. One-way ANOVA. Mean S.E.M. Dunnett's multiple comparisons test compared to the vehicle treated group. *p<0.05, **p<0.01, ***p<0.001, ****p<0.0001. Quantification of TFEB nuclear translocation after treatment with vehicle or LM11A-31 (100 nM, 1 μM). […] (B) Since LM11A-31 increases the expression of lysosomal genes including the PPT1 and TPP1, and Cathepsin D enzymes, we asked whether LM11A-31 increases the overall activity levels of these enzymes in cellulo. Wild type (WT) and mutant cells were treated with vehicle or LM11A-31 (100 nM). Cells were plated on day 0 and dosed with drug-containing media on DIV3 and DIV5. Cells were lysed, and protein quantification and enzyme activity assay were performed on DIV7. Data was analyzed with GraphPad Prism™. Two-way ANOVA. Mean S.E.M. Tukey's multiple comparisons test. *p<0.05, **p<0.01, ***p<0.001. ****p<0.0001.
Treatment with AF38469 stimulates TFEB nuclear translocation as monitored via time course study. For (A) and (B), wild type neuro 2A […] neuroblastoma (N2A) cells were plated and transfected with a pEGFP-N1-TFEB plasmid for a 24-hour incubation. Cells were treated with vehicle or AF38469 (40 nM, 400 nM) for three hours then immunocytochemistry was performed with anti-GFP (Abcam, ab13970) and 4′, -diamidino-2-phenylindole-dihydrochloride (DAPI). Cells were imaged on the Nikon AIR confocal microscope. For (C), wild type N2A cells were plated and transfected with a pEGFP-N1-TFEB plasmid for a 24-hour incubation. Cells were dyed and imaged on the CellInsight™ CX7 High-Content Screening Platform (CX7) then treated with media containing vehicle or AF38469 (40 nM, 400 nM). Cells were imaged every 30 minutes for three hours on the CX7 with incubation between imaging sessions, and results were quantified. The statistics were analyzed using Graphpad Prism™. One-way ANOVA. Mean±S.E.M. Dunnett's multiple comparisons test compared to the vehicle treated group. *p<0.05,**p<0.01, ***p<0.001, ****p<0.0001. […] TFEB is a transcription factor that stimulates transcription of genes that are necessary for lysosomal biogenesis and function. Thus, increased TFEB nuclear translocation is expected to stimulate lysosomal biogenesis and function.

| Compound | microglial activation (CD68) ([1]; 3.125 μg/ml, 78.125 μg/ml, somatosensory cortex) | microglial activation (CD68) ([1]; 78.125 μg/ml, VPM/VPL of the thalamus) | CD68 reactivity ([1]; higher doses, summary statement) | microglial activation (CD68) ([1]; lower doses 0.03125 μg/ml, 0.3125 μg/ml, somatosensory cortex) | TFEB nuclear translocation ([2]; 40 nM and 400 nM, 180 minutes of incubation, vs vehicle) | TFEB nuclear translocation ([2]; 40 nM, 90 minutes of incubation, vs vehicle) | TFEB nuclear translocation (i.e., activation) [2] | TFEB nuclear translocation ([2]; 100 nM and 1 μM, 180 minutes of incubation) | TFEB nuclear translocation ([2]; 100 nM, 90 minutes of incubation) |
| --- | --- | --- | --- | --- | --- | --- | --- | --- | --- |
| Cc1cccc(NC(=O)c2ccc(C(F)(F)F)cc2C(=O)O)n1 [AF38469, 2-((6-methylpyridin-2-yl)carbamoyl)-5-(trifluoromethyl)benzoic acid] | did not significantly impact | significantly increased | increased or had no impact | significantly and potently decreased | significant increase | significant increase | stimulated | – | – |
| CC[C@H](C)[C@H](N)C(=O)NCCN1CCOCC1 [LM11A-31, N-[2-(morpholin-4-yl)ethyl]-L-isoleucinamide] | – | – | – | – | – | – | stimulated | increasing trend continued | significant increase |
